Measurements from patent US7696357B2, “Stable hydrate of a muscarinic receptor antagonist” (Novartis International Pharmaceutical Ltd., priority 2002, dated 2010).

Assay: storage stability / shelf life of the solid form
Format: physicochemical
Conditions: storage over time

Structure (SMILES) | stability on storage (in words) | stability on storage (in words) (hydrate) | stability on storage (in words) (listed as solid hydrate, hydrate)
NC(=O)C(c1ccccc1)(c1ccccc1)[C@@H]1CCN(CCc2ccc3c(c2)CCO3)C1 [free base, (S)-2-{1-[2-(2,3-dihydrobenzofuran-5-yl)ethyl]-3-pyrrolidinyl}-2,2-diphenylacetamide, reference compound] | very unstable | – | –
NC(=O)C(c1ccccc1)(c1ccccc1)[C@@H]1CCN(CCc2ccc3c(c2)CCO3)C1 [toluene solvate, (S)-2-{1-[2-(2,3-dihydrobenzofuran-5-yl)ethyl]-3-pyrrolidinyl}-2,2-diphenylacetamide toluene solvate] | not stable over medium to long term storage periods | – | –
NC(=O)C(c1ccccc1)(c1ccccc1)[C@@H]1CCN(CCc2ccc3c(c2)CCO3)C1 [darifenacin hydrate, (S)-2-{1-[2-(2,3-dihydrobenzofuran-5-yl)ethyl]-3-pyrrolidinyl}-2,2-diphenylacetamide hydrate] | – | stable over long periods | remain stable for well over a year
